ChEMBL document CHEMBL3769371, “1-[(2E)-3-Phenylprop-2-enoyl]-1H-benzimidazoles as anticancer agents: synthesis, crystal structure analysis and binding studies of the most potent anticancer molecule with serum albumin” (Medchemcomm, 2015)
Activity calls are given as the source filed them. The calls are words filed in the database; no cut-off is given here.

Tests used:
HCT-116 = test: (§1) Antiproliferative activity against human HCT116 cells at 10'5 M; type: functional
RPMI-8226 = test: (§2) Antiproliferative activity against human RPMI8226 cells at 10'5 M; type: functional
IGROV-1 = test: Antiproliferative activity against human IGROV1 cells at 10'5 M; type: functional
SR = test: Antiproliferative activity against human SR cells at 10'5 M; type: functional
NCI/ADR-RES = test: Antiproliferative activity against human NCI-ADR-RES cells at 10'5 M; type: functional
HCC 2998 = test: Antiproliferative activity against human HCC2998 cells at 10'5 M; type: functional
SK-OV-3 = test: Antiproliferative activity against human SKOV3 cells at 10'5 M; type: functional
OVCAR-4 = test: Antiproliferative activity against human OVCAR4 cells at 10'5 M; type: functional
MCF7 = test: Antiproliferative activity against human MCF7 cells at 10'5 M; type: functional
NCI-H460 = test: Antiproliferative activity against human NCI-H460 cells at 10'5 M; type: functional
Malme-3M = test: Antiproliferative activity against human MALME-3M cells at 10'5 M; type: functional
DU-145 = test: Antiproliferative activity against human DU145 cells at 10'5 M; type: functional
CCRF-CEM = test: Antiproliferative activity against human CCRF-CEM cells at 10'5 M; type: functional
K562 = test: Antiproliferative activity against human K562 cells at 10'5 M; type: functional
SNB-75 = test: Antiproliferative activity against human SNB75 cells at 10'5 M; type: functional
PC-3 = test: Antiproliferative activity against human PC3 cells at 10'5 M; type: functional
Hs-578T = test: Antiproliferative activity against human Hs 578T cells at 10'5 M; type: functional
TK-10 = test: Antiproliferative activity against human TK10 cells at 10'5 M; type: functional
MOLT-4 = test: Antiproliferative activity against human MOLT4 cells at 10'5 M; type: functional
[1] = as §1; type: functional, HCT-116
[2] = as §2; type: functional, RPMI-8226

| SMILES | Activity (HCT-116) | Activity (RPMI-8226) | Activity (IGROV-1) | Activity (SR) | Activity (NCI/ADR-RES) | Activity (HCC 2998) | Activity (SK-OV-3) | Activity (OVCAR-4) | Activity (MCF7) | Activity (NCI-H460) | Activity (Malme-3M) | Activity (DU-145) | Activity (CCRF-CEM) | Activity (K562) | Activity (SNB-75) | Activity (PC-3) | Activity (Hs-578T) | Activity (TK-10) | Activity (MOLT-4) | also measured |
| --- | --- | --- | --- | --- | --- | --- | --- | --- | --- | --- | --- | --- | --- | --- | --- | --- | --- | --- | --- | --- |
| Cc1cc2ncn(C(=O)/C=C/c3ccccc3)c2cc1C | inactive | inactive | inactive | inactive | inactive | inactive | inactive | inactive | inactive | inactive | inactive | inactive | inactive | inactive | inactive | inactive | inactive | inactive | inactive | – |
| Cc1ccc2ncn(C(=O)/C=C/c3ccccc3)c2c1 | inactive | inactive | inactive | inactive | inactive | inactive | inactive | inactive | inactive | inactive | inactive | inactive | inactive | inactive | inactive | inactive | inactive | inactive | inactive | – |
| Cc1ccc2nc[nH]c2c1 | – | – | – | – | – | – | – | – | – | – | – | – | – | – | – | – | – | – | – | growth inhibition (GI) [1]: 64.84%; growth inhibition (GI) [2]: 88.17%; growth inhibition (GI) (SR): 84.7%; growth inhibition (GI) (MCF7): 73.43%; growth inhibition (GI) (CCRF-CEM): 60.81% |
| Cc1nc2ccccc2n1C(=O)/C=C/c1ccccc1 | inactive | inactive | inactive | inactive | inactive | inactive | inactive | inactive | inactive | inactive | inactive | inactive | inactive | inactive | inactive | inactive | inactive | inactive | inactive | – |
| COc1ccc(-c2nc3ccccc3n2C(=O)/C=C/c2ccccc2)cc1 | inactive | inactive | inactive | inactive | inactive | inactive | inactive | inactive | inactive | inactive | inactive | inactive | inactive | inactive | inactive | inactive | inactive | inactive | inactive | – |
| O=C(/C=C/c1ccccc1)n1c(-c2ccccc2O)nc2ccccc21 | inactive | inactive | inactive | inactive | inactive | inactive | inactive | inactive | inactive | inactive | inactive | inactive | inactive | inactive | inactive | inactive | inactive | inactive | inactive | – |
| O=C(/C=C/c1ccccc1)n1c(-c2ccccc2)nc2ccccc21 | inactive | inactive | inactive | inactive | inactive | inactive | inactive | inactive | inactive | inactive | inactive | inactive | inactive | inactive | inactive | inactive | inactive | inactive | inactive | – |
| O=C(/C=C/c1ccccc1)n1c(-c2ccc(O)cc2)nc2ccccc21 | inactive | inactive | inactive | inactive | inactive | inactive | inactive | inactive | inactive | inactive | inactive | inactive | inactive | inactive | inactive | inactive | inactive | inactive | inactive | – |
| Cc1cc2nc[nH]c2cc1C [DIMEDAZOL] | – | – | – | – | – | – | – | – | – | – | – | – | – | – | – | – | – | – | – | growth inhibition (GI) [2]: 63.61%; growth inhibition (GI) (SR): 64.66%; growth inhibition (GI) (MCF7): 69.59%; growth inhibition (GI) (CCRF-CEM): 64.66% |
